Assay results published in patent US9656990B2, “Cathepsin cysteine protease inhibitors” (Merck Sharp & Dohme Corp., priority 2014, dated 2017).

Columns and labels:
[1] = target: T1, human cathepsin F (Homo sapiens, UniProt Q9UBX1); assay: Cathepsin F Assay; type: biochemical; conditions: IP from dose response curve; Z-Phe-Arg-AMC substrate, pH 5.5; read-out: hCat F (IP (nM))
T1 sequence (Q9UBX1 271-484): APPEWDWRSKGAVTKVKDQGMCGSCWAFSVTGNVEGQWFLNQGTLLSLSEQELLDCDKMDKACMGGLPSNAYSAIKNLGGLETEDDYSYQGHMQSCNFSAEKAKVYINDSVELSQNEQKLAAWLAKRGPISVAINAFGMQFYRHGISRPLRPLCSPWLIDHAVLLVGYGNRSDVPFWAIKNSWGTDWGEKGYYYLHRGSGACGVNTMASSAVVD
Summary of the method: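 Human cathepsin F (10 nM) preincubated 15 min at room temperature with compounds in 50 mM MES pH 5.5, 2.5 mM EDTA, 2.5 mM DTT, 10% DMSO. Z-Phe-Arg-AMC (8 μM) added; AMC release read by fluorescence (Ex 360/Em 460 nm) over 20 min, inhibition fit to dose-response model.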

[2] = target: human cathepsin K (UniProt P43236, Y175D/V274L, species not given); assay: Cathepsin K Assay; type: biochemical; conditions: IP from dose response curve; Z-Leu-Arg-AMC substrate, pH 5.5; read-out: hrbCat K (IP (nM))

| Compound | IC50 [1] [nM] | IC50 [2] [nM] |
| --- | --- | --- |
| N#CC1(NC(=O)C2CC(F)(F)CCC2c2nn(-c3ccc(F)cc3)cc2-c2ccc(N3CCS(=O)(=O)CC3)cc2)CC1 (racemic) [Example 80, (1R,2R and 1S,2S)-N-(1-cyanocyclopropyl)-2-(4-(4-(1,1-dioxidothiomorpholino)phen-yl)-1-(4-fluorophenyl)-1H-pyrazol-3-yl)-5,5-difluorocyclohexanecarbox-amide] | 35 | 1 |
| N#CC1(NC(=O)[C@H]2CC(F)(F)CC[C@@H]2c2nn(-c3ccc(F)cc3)cc2-c2ccc(N3CCS(=O)(=O)CC3)cc2)CC1 [Example 84, (1S,2S)-N-(1-cyanocyclopropyl)-2-(4-(4-(1,1-dioxidothiomorpholino)phen-yl)-1-(4-fluorophenyl)-1H-pyrazol-3-yl)-5,5-difluorocyclohexanecarbox-amide] | 1050 | 51.6 |
| N#CC1(NC(=O)[C@@H]2CCC(F)(F)C[C@H]2c2nn(-c3ncccc3F)cc2-c2ccc(N3CCS(=O)(=O)CC3)cc2)CC1 [Example 33, (1R,2R)-N-(1-cyanocyclopropyl)-2-(4-(4-(1,1-dioxidothiomorpholino)phen-yl)-1-(3-fluoropyridin-2-yl)-1H-pyrazol-3-yl)-4,4-difluorocyclohexanecarbox-amide] | 9540 | 13.6 |
| N#CC1(NC(=O)[C@@H]2CCCC[C@H]2c2nn(-c3ccc(F)cn3)cc2-c2ccc(N3CCS(=N)(=O)CC3)cc2)CC1 [Example 5, (1R,2R)—N-(1-Cyanocyclopropyl)-2-(1-(5-fluoropyridin-2-yl)-4-(4-(1-imino-1-oxidothiomorpholino)phenyl)-1H-pyrazol-3-yl)cyclohexanecarboxamide] | 877 | 1.53 |
| CN=S1(=O)CCN(c2ccc(-c3c([C@@H]4CCCC[C@H]4C(=O)NC4(C#N)CC4)nn(-c4ncccc4F)c3C)cc2)CC1 [Example 44, (1R,2R)-N-(1-cyanocyclopropyl)-2-(1-(3-fluoropyridin-2-yl)-5-methyl-4-(4-(1-(methylimino)-1-oxidothiomorpholino)phenyl)-1H-pyrazol-3-yl)cyclohexanecarboxamide] | 8840 | 13.9 |
| CN=S1(=O)CCN(c2ccc(-c3cn(-c4ccc(F)cn4)nc3[C@@H]3CC[C@H](F)C[C@H]3C(=O)NC3(C#N)CC3)cc2)CC1 [Example 37, (1R,2R,5S)-N-(1-cyanocyclopropyl)-5-fluoro-2-(1-(5-fluoropyridin-2-yl)-4-(4-(1-(methylimino)-1-oxidothiomorpholino)phenyl)-1H-pyrazol-3-yl)cyclohexanecarboxamide] | 1660 | 1.76 |
| CS(=O)(=O)c1ccc(-c2cn(-c3ccc4ccccc4c3)nc2C2CCC(F)(F)CC2C(=O)NCC#N)cc1 (racemic) [Example 78, (1R,2R and 1S,2S)-N-(cyanomethyl)-5,5-difluoro-2-(4-(4-(methylsulfonyl)phenyl)-1-(naphthalen-2-yl)-1H-pyrazol-3-yl)cyclohexanecarboxamide] | 4 | 2.12 |
| N#Cc1cccc(-n2cc(-c3ccc(N4CCS(=O)(=O)CC4)cc3)c([C@@H]3CCCC[C@H]3C(=O)NC3(C#N)CC3)n2)c1 [Example 101, (1R,2R)-N-(1-cyanocyclopropyl)-2-(1-(3-cyanophenyl)-4-(4-(1,1-dioxidothiomorpholino)phen-yl)-1H-pyrazol-3-yl)cyclohexanecarboxamide] | 452 | 0.99 |
| CS(=O)(=O)c1ccc(-c2cn(-c3ccc(F)cc3)nc2C2CCC(F)(F)CC2C(=O)NCC#N)cc1 (racemic) [Example 77, (1R,2R and 1S,2S)-N-(cyanomethyl)-5,5-difluoro-2-(1-(4-fluorophenyl)-4-(4-(methylsulfonyl)phenyl)-1H-pyrazol-3-yl)cyclohexanecarboxamide] | 9 | 1.24 |
| N#Cc1ccccc1-n1cc(-c2ccc(N3CCS(=O)(=O)CC3)cc2)c([C@@H]2CCCC[C@H]2C(=O)NC2(C#N)CC2)n1 [Example 91, (1R,2R)-N-(1-cyanocyclopropyl)-2-(1-(2-cyanophenyl)-4-(4-(1,1-dioxidothiomorpholino)phen-yl)-1H-pyrazol-3-yl)cyclohexanecarboxamide] | 1020 | 1.02 |
| N#CC1(NC(=O)[C@@H]2CCCC[C@H]2c2nn(-c3ccc(F)cc3)cc2-c2ccc(C3CN(C(=O)NCC(F)(F)F)C3)cc2)CC1 [Example 136, 3-(4-(3-((1R,2R)-2-((1-cyanocyclopropyl)carbamoyl)cyclohexyl)-1-(4-fluorophenyl)-1H-pyrazol-4-yl)phenyl)-N-(2,2,2-trifluoroethyl)azetidine-1-carboxamide] | 83 | 0.97 |
| N#CC1(NC(=O)[C@@H]2CCCC[C@H]2c2nn(-c3ccc(F)cc3F)cc2-c2ccc(N3CCS(=O)(=O)CC3)cc2)CC1 [Example 131, (1R,2R)-N-(1-cyanocyclopropyl)-2-(1-(2,4-difluorophenyl)-4-(4-(1,1-dioxidothiomorpholino)phen-yl)-1H-pyrazol-3-yl)cyclohexanecarboxamide] | 1540 | 2.49 |
| COc1cccc(-n2cc(-c3ccc(N4CCS(=O)(=O)CC4)cc3)c([C@@H]3CCCC[C@H]3C(=O)NC3(C#N)CC3)n2)c1 [Example 2, (1R,2R)—N-(1-Cyanocyclopropyl)-2-(4-(4-(1,1-dioxidothiomorpholino)phenyl)-1-(3-methoxyphenyl)-1H-pyrazol-3-yl)cyclohexanecarboxamide] | 494 | 0.99 |
| CC(C)(O)c1ccc(-n2cc(-c3ccc(N4CCS(=O)(=O)CC4)cc3)c([C@@H]3CCCC[C@H]3C(=O)NC3(C#N)CC3)n2)cc1 [Example 97, (1R,2R)-N-(1-cyanocyclopropyl)-2-(4-(4-(1,1-dioxidothiomorpholino)phen-yl)-1-(4-(2-hydroxypropan-2-yl)phenyl)-1H-pyrazol-3-yl)cyclohexanecarboxamide] | 764 | 0.8 |
| N#CC1(NC(=O)[C@@H]2CCCC[C@H]2c2nn(-c3ccc(OC(F)(F)F)cc3)cc2-c2ccc(N3CCS(=O)(=O)CC3)cc2)CC1 [Example 119, (1R,2R)-N-(1-cyanocyclopropyl)-2-(4-(4-(1,1-dioxidothiomorpholino)phen-yl)-1-(4-(trifluoromethoxy)phenyl)-1H-pyrazol-3-yl)cyclohexanecarboxamide] | 562 | 1.8 |
| CCN=S1(=O)CCN(c2ccc(-c3cn(-c4ccc(F)cc4)nc3[C@@H]3CCCC[C@H]3C(=O)NC3(C#N)CC3)cc2)CC1 [Example 138, (1R,2R)-N-(1-cyanocyclopropyl)-2-(4-(4-(1-(ethylimino)-1-oxidothiomorpholino)phenyl)-1-(4-fluorophenyl)-1H-pyrazol-3-yl)cyclohexanecarboxamide] | 725 | 1.62 |
| Cc1c(-c2ccc(N3CCS(=O)(=O)CC3)cc2)c([C@@H]2CCC(F)(F)C[C@H]2C(=O)N[C@H](C#N)C(C)C)nn1-c1ccc(F)cn1 [Example 31, (1R,2R)-N-((S)-1-cyano-2-methylpropyl)-2-(4-(4-(1,1-dioxidothiomorpholino)phen-yl)-1-(5-fluoropyridin-2-yl)-5-methyl-1H-pyrazol-3-yl)-5,5-difluorocyclohexanecarbox-amide] | 115 | 1.63 |
| N#CC1(NC(=O)[C@@H]2CCCC[C@H]2c2nn(-c3cccc(Cl)c3)cc2-c2ccc(N3CCS(=O)(=O)CC3)cc2)CC1 [Example 99, (1R,2R)-2-(1-(3-chlorophenyl)-4-(4-(1,1-dioxidothiomorpholino)phen-yl)-1H-pyrazol-3-yl)-N-(1-cyanocyclopropyl)cyclohex-anecarboxamide] | 379 | 0.48 |
| N#CC1(NC(=O)[C@@H]2CCCC[C@H]2c2nn(-c3ncccc3F)cc2-c2ccc(N3CCS(=O)(=O)CC3)cc2)CC1 [Example 144, (1R,2R)-N-(1-cyanocyclopropyl)-2-(4-(4-(1,1-dioxidothiomorpholino)phen-yl)-1-(3-fluoropyridin-2-yl)-1H-pyrazol-3-yl)cyclohexanecarboxamide] | 3060 | 5.59 |
| N#CC1(NC(=O)[C@@H]2CC3CC3C[C@H]2c2nn(-c3ccc(F)cc3)cc2-c2ccc(N3CCS(=O)(=O)CC3)cc2)CC1 (single isomer, unassigned) [Example 3, (1S or 1R,3R,4R,6R or 6S)—N-(1-Cyanocyclopropyl)-4-(4-(4-(1,1-dioxidothiomorpholino)phenyl)-1-(4-fluorophenyl)-1H-pyrazol-3-yl)bicyclo[4.1.0]heptane-3-carboxamide] | 333 | 0.84 |
| N#CN=S1(=O)CCN(c2ccc(-c3cn(-c4ccc(F)cc4)nc3[C@@H]3CCCC[C@H]3C(=O)NC3(C#N)CC3)cc2)CC1 [Example 19, (1R,2R)-N-(1-cyanocyclopropyl)-2-(4-(4-(1-(cyanoimino)-1-oxidothiomorpholino)phenyl)-1-(4-fluorophenyl)-1H-pyrazol-3-yl)cyclohexanecarboxamide] | 809 | 2.2 |
| COc1ccc(-n2cc(-c3ccc(N4CCS(=O)(=O)CC4)cc3)c([C@@H]3CCCC[C@H]3C(=O)NC3(C#N)CC3)n2)cn1 [Example 168, (1R,2R)-N-(1-cyanocyclopropyl)-2-(4-(4-(1,1-dioxidothiomorpholino)phen-yl)-1-(6-methoxypyridin-3-yl)-1H-pyrazol-3-yl)cyclohexanecarboxamide] | 763 | 2.4 |
